Reference: patent US8796460B2, “Compounds for inhibiting KSP kinesin activity” (Mercky Sharp & Dohme Corp., priority 2007, dated 2014)

test system: HCT116 colon cancer cells; assay: KSP Cellular Assay (percent of cells staining positive for Phos-Histone H3 / Phos-MPM2); assay type: cell-based; details: Homo sapiens, HCT-116, 16 h, Table 101; HCT116 cells, 16 hours with drug; read-out: ED50 (nM) Range
Method: HCT116 colon cancer cells were grown in DMEM:F12 media with 10% heat inactivated FBS at 37 degrees with 5% CO2. Cells were plated at 7,500 cells per well in PDL coated 384-well tissue culture plates. 6 hours later media was removed and new media containing drug was added. Cells were incubated with drug for 16 hours. All further steps were performed at room temperature in the dark. Cells were fixed with 25 ul/well Prefer fixation solution plus 250 nM Hoechst dye and incubated for 30 minutes. The fixation solution was removed and cells were washed with PBS. Cells were then permeabilized with 25 ul/well 0.2% Triton-X in PBS and incubated for 10 minutes. Cells were washed with PBS and then incubated with 25 ul/well PBS containing 3% FBS for 30 minutes. Cells were then stained overnight at 4 degrees with 25 ul/well antibody solution in PBS plus 3% FBS. Antibodies used were Phos-Histone H3 (ser10)-Alexa Flur 488 Conjugate and Phos-MPM2 Texas Red Conjugate. Cells were washed with PBS and then immunofluorescence images captured with HT Pathway microscope. The percent of cells staining positive was calculated and EC50 values for the compounds of the invention that were tested were determined using Excel XLfit.
EC50 Determinations: Dose-response curves were plotted from inhibition data generated each in duplicate, from 8 point serial dilutions of inhibitory compounds. Concentration of compound was plotted against enzyme activity (OD reading). To generate EC50 values, the dose-response curves were then fitted to a standard sigmoidal curve and EC50 values were derived by nonlinear regression analysis.

Compound	EC50
CC(=O)N1N=C(c2cc(F)ccc2F)SC12CCCOc1ccccc12 (stereo not drawn) [compound 121]	> 1000 nM
CC(=O)N1N=C(c2cc(F)ccc2F)SC12CC(c1ccccc1)Oc1ccccc12 (stereo not drawn) [compound 117]	> 1000 nM
CC(=O)N1N=C(c2cc(F)ccc2F)SC12CCCc1ncccc12 (stereo not drawn) [compound 123]	> 1000 nM
CC(=O)N1N=C(c2cc(F)ccc2F)SC12CCN(C(C)=S)c1ccccc12 (stereo not drawn) [compound 114]	> 1000 nM
CC(=O)N1N=C(c2cc(F)ccc2F)SC12CCc1ccccc12 (stereo not drawn) [compound 105]	≤ 500 nM
CCOC(=O)N1CCC2(SC(c3cc(F)ccc3F)=NN2C(C)=O)c2ccccc21 (stereo not drawn) [compound 113]	> 1000 nM
CC(=O)N1N=C(c2cc(F)ccc2F)SC12CC[S+]([O-])c1ccccc12 (stereo not drawn) [compound 108]	> 1000 nM
CC(=O)N1N=C(c2cc(F)ccc2F)SC12COc1ccccc12 (stereo not drawn) [compound 106]	≤ 500 nM
CC(=O)N1N=C(c2cc(F)ccc2F)SC12CCOc1ccccc12 (stereo not drawn) [compound 102]	≤ 500 nM
CC(=O)N1N=C(c2cc(F)ccc2F)SC12CCNc1ccccc12 (stereo not drawn) [compound 110]	≤ 500 nM

same assay, conditions: Homo sapiens, HCT-116, 16 h, Table 401; HCT116 cells, 16 hours with drug; read-out: ED50 (nM) Range

Compound	EC50
CCC(=O)N1N=C(c2cc(F)ccc2F)SC12CCOc1ccccc12 (stereo not drawn) [compound 465]	≤ 500 nM
N[C@H](C(=O)N1N=C(c2cc(F)ccc2F)SC12CCCc1sccc12)C1CC1 (stereo partly drawn) [compound 417]	> 1000 nM
N[C@H]1C[C@H](C(=O)N2N=C(c3cc(F)ccc3F)SC23CCOc2ccccc23)C1 (stereo partly drawn) [compound 500]	> 500 nM
N[C@H]1CC[C@@H](C(=O)N2N=C(c3cc(F)ccc3F)SC23CCOc2ccccc23)C1 (stereo partly drawn) [compound 476]	> 500 nM
O=C1CCCN1CCCC(=O)N1N=C(c2cc(F)ccc2F)SC12CCOc1ccccc12 (stereo not drawn) [compound 493]	> 500 nM
O=C(C1CCNCC1)N1N=C(c2cc(F)ccc2F)SC12CCSc1ccccc12 (stereo not drawn) [compound 406]	> 1000 nM
CC(C)[C@H](O)C(=O)N1N=C(c2cc(F)ccc2F)SC12CCCc1sccc12 (stereo partly drawn) [compound 409]	> 1000 nM
N[C@H]1C[C@H](C(=O)N2N=C(c3cc(F)ccc3F)SC23CCc2ccccc23)C1 (stereo partly drawn) [compound 502]	≤ 500 nM
COCCOCC(=O)N1N=C(c2cc(F)ccc2F)SC12CCOc1ccccc12 (stereo not drawn) [compound 472]	> 1000 nM
O=C(c1cccnc1)N1N=C(c2cc(F)ccc2F)SC12CCOc1ccccc12 (stereo not drawn) [compound 431]	> 1000 nM
N[C@H]1CCC[C@@H](C(=O)N2N=C(c3cc(F)ccc3F)SC23CCOc2ccccc23)C1 (stereo partly drawn) [compound 479]	> 500 nM
O=C(N1N=C(c2cc(F)ccc2F)SC12CCOc1ccccc12)C(F)(F)F (stereo not drawn) [compound 470]	> 1000 nM
O=C(CC1CCNCC1)N1N=C(c2cc(F)ccc2F)SC12CCc1ccccc12 (stereo not drawn) [compound 447]	≤ 500 nM
O=C(CC1CNC1)N1N=C(c2cc(F)ccc2F)SC12CCOc1ccccc12 (stereo not drawn) [compound 491]	500 to 1000 nM
O=C([C@@H]1CCCN1)N1N=C(c2cc(F)ccc2F)SC12CCCc1sccc12 (stereo partly drawn) [compound 411]	> 1000 nM
O=C([C@@H]1CCCCN1)N1N=C(c2cc(F)ccc2F)SC12CCCc1ccccc12 (stereo partly drawn) [compound 414]	> 1000 nM
O=C(CC1CCNC1)N1N=C(c2cc(F)ccc2F)SC12CCOc1ccccc12 (stereo not drawn) [compound 496]	≤ 500 nM
O=C(CC1CCNC1)N1N=C(c2cc(F)ccc2F)SC12CCc1ccccc12 (stereo not drawn) [compound 451]	≤ 500 nM
O=C(C1CCCCN1)N1N=C(c2cc(F)ccc2F)SC12CCOc1ccccc12 (stereo not drawn) [compound 404]	> 1000 nM

same assay, conditions: Homo sapiens, HCT-116, 16 h, Table 701; HCT116 cells, 16 hours with drug; read-out: EC50 (nM) Range

Compound	EC50
CCN1N=C(c2cc(F)ccc2F)SC12CCOc1ccccc12 (stereo not drawn) [compound 703]	> 1000 nM

same assay, conditions: Homo sapiens, HCT-116, 16 h, Table 801; HCT116 cells, 16 hours with drug; read-out: EC50 (nM) Range

Compound	EC50
CC(=O)N1N=C(c2cc(F)ccc2F)S[C@@]12c1cc(Cl)ccc1OC[C@H]2CCN [compound 811]	≤ 500 nM
CC(=O)N1N=C(c2cc(F)ccc2F)S[C@@]12c1ccccc1OC[C@@H]2CCN [compound 814]	≤ 500 nM
CC(=O)N1N=C(c2cc(F)ccc2F)S[C@]12c1cc(Cl)ccc1OC[C@@H]2CCN [compound 812]	> 1000 nM
CC(=O)N1N=C(c2cc(F)ccc2F)S[C@]12c1cc(F)c(F)cc1OC[C@@H]2CCN [compound 808]	> 1000 nM
CC(=O)N1N=C(c2cc(F)ccc2F)S[C@@]12c1cc(F)ccc1OC[C@@H]2CCN [compound 804]	≤ 500 nM

same assay, conditions: Homo sapiens, HCT-116, 16 h, Table 1201 (Example 1201); HCT116 cells, 16 hours with drug; read-out: EC50 (nM) Range

Compound	EC50
CC(=O)N1N=C(c2cc(F)ccc2F)S[C@@]12c1ccccc1OC[C@H]2CCNC(C)C [compound 1203]	≤ 500 nM
CC(=O)N1N=C(c2cc(F)ccc2F)S[C@@]12c1ccccc1OC[C@H]2CCN1CCOCC1 (single isomer, unassigned) [compound 1201]	≤ 500 nM

same assay, conditions: Homo sapiens, HCT-116, 16 h, table of Example 901; HCT116 cells, 16 hours with drug; read-out: EC50 (nM) Range

Compound	EC50
CC(=O)N1N=C(c2cc(F)ccc2F)S[C@]12c1ccccc1OC[C@H]2CC#N [compound 904]	500 to 1000 nM

same assay, conditions: Homo sapiens, HCT-116, 16 h, table of Example 1001; HCT116 cells, 16 hours with drug; read-out: EC50 (nM) Range

Compound	EC50
CC(=O)N1N=C(c2cc(F)ccc2F)S[C@]12c1ccccc1OC[C@H]2CCCO (single isomer, unassigned) [compound 1002]	≤ 500 nM

same assay, conditions: Homo sapiens, HCT-116, 16 h, table of Example 1801 (headed Table 1201); HCT116 cells, 16 hours with drug; read-out: EC50 (nM) Range

Compound	EC50
CC(=O)N1N=C(c2ccc(F)c(F)c2)S[C@@]12c1cc(F)ccc1OC[C@H]2CCN [compound 1820]	≤ 500 nM
CC(=O)N1N=C(c2cc(C(F)(F)F)ccc2F)S[C@@]12c1ccccc1OC[C@H]2CCN [compound 1806]	≤ 500 nM
CC(=O)N1N=C(c2ccc(F)cc2F)S[C@]12c1ccccc1OC[C@@H]2CCN [compound 1816]	> 1000 nM
CC(=O)N1N=C(c2cccc(F)c2)S[C@@]12c1ccccc1OC[C@H]2CCN [compound 1810]	≤ 500 nM
CC(=O)N1N=C(c2cccc(Cl)c2)S[C@@]12c1ccccc1OC[C@H]2CCN [compound 1812]	≤ 500 nM
CC(=O)N1N=C(c2cccc(Cl)c2)S[C@]12c1ccccc1OC[C@@H]2CCN [compound 1813]	> 1000 nM

same assay, conditions: Homo sapiens, HCT-116, 16 h, table of Example 1901; HCT116 cells, 16 hours with drug; read-out: EC50 (nM) Range

Compound	EC50
CO[C@H](C)C(=O)N1N=C(c2cc(F)ccc2F)S[C@]12c1cc(F)ccc1OC[C@@H]2CCN [compound 1903]	> 1000 nM
COCCOCC(=O)N1N=C(c2cc(F)ccc2F)S[C@@]12c1cc(F)cc(F)c1OC[C@H]2CCN [compound 1911]	≤ 500 nM
CO[C@@H](C)C(=O)N1N=C(c2cc(F)ccc2F)S[C@]12c1cc(F)ccc1OC[C@@H]2CCN (single isomer, unassigned) [compound 1901]	> 1000 nM
COCCOCC(=O)N1N=C(c2cc(F)ccc2F)S[C@@]12c1cc(F)ccc1OC[C@H]2CCN [compound 1906]	≤ 500 nM
COCCOCC(=O)N1N=C(c2cc(F)ccc2F)S[C@]12c1ccccc1OC[C@@H]2CCN [compound 1910]	> 1000 nM

same assay, conditions: Homo sapiens, HCT-116, 16 h, table of Example 2001; HCT116 cells, 16 hours with drug; read-out: EC50 (nM) Range

Compound	EC50
CO[C@@H](C)C(=O)N1N=C(c2cc(F)ccc2F)S[C@@]12c1ccccc1OC[C@H]2CCN [compound 2008]	≤ 500 nM
COCC(=O)N1N=C(c2cc(F)ccc2F)S[C@]12c1ccccc1OC[C@@H]2CCN [compound 2003]	≤ 500 nM

same assay, conditions: Homo sapiens, HCT-116, 16 h, table of Example 2101; HCT116 cells, 16 hours with drug; read-out: EC50 (nM) Range

Compound	EC50
CCOC(=O)N1N=C(c2cc(F)ccc2F)S[C@@]12c1cc(F)ccc1OC[C@H]2CCN (single isomer, unassigned) [compound 2101]	≤ 500 nM

same assay, conditions: Homo sapiens, HCT-116, 16 h, table of Example 2201; HCT116 cells, 16 hours with drug; read-out: EC50 (nM) Range

Compound	EC50
NCC[C@@H]1COc2ccccc2[C@@]12SC(c1cc(F)ccc1F)=NN2C(=O)N1CCOCC1 [compound 2205]	> 1000 nM

same assay, conditions: Homo sapiens, HCT-116, 16 h, table of Example 2901; HCT116 cells, 16 hours with drug; read-out: EC50 (nM) Range

Compound	EC50
CC(=O)N1N=C(c2cc(F)ccc2F)S[C@@]12c1cc(F)ccc1NC[C@@H]2CCN (single isomer, unassigned) [compound 2901]	≤ 500 nM

same assay, conditions: Homo sapiens, HCT-116; read-out: EC50 (nM) Range

Compound	EC50
C=CC[C@@H]1CNc2ccccc2[C@]12SC(c1cc(F)ccc1F)=NN2C(C)=O (single isomer, unassigned) [compound 3001]	≤ 500 nM
Fc1ccc(F)c(C2=NN3CCC4CNc5ccccc5C43S2)c1 (stereo not drawn) [compound 3101]	> 1000 nM
